Measured values as given in US7910624B1, “Compositions for the treatment of blood disorders” (The Trustees of Boston University, priority 1995, dated 2011).

Columns and labels:
bone marrow cells = conditions: continuous intravenous administration; cited from earlier work
anemic juvenile baboons = assay: In vivo reticulocyte proliferation and globin expression in phlebotomized anemic baboons; design: species or system baboon
Experimental: Experiments were performed to determine if administration of the chemical compositions could induce fetal globin gene expression in an in vivo model similar to humans (S. P. Perrin et al., Brit. J. Haematol. 88:555-61, 1994). Briefly, chemicals were prepared as sterile pharmaceutical solutions in pH adjusted sterile water. A variety of chemical compositions were administered sequentially to some baboons. After administration of one compound, a wash-out period with no compound administration was maintained until reticulocytes returned to base line prior to administration of the next compound. This was done, at least partly, to compare the magnitude of response which occurred within the same individual animal to different compounds.
Briefly, juvenile female baboons (2 years old) were catheterized with arterial and venous catheters and phlebotomized gradually every day to maintain a moderate anemia of 7.0 to 7.5 grams hemoglobin/dl. Fetal reticulocytes, the newly produced red blood cells containing fetal globin, were assayed using a monoclonal antibody against fetal globin (HbF) as described by G. Dover et al. (Blood 67:735-38, 1986). Briefly, blood was stained with two antibodies, one specific for reticulocytes and another against fetal globin protein. The amount of antibody bound cells was determined by FACS analysis. Globin chain synthesis was assayed as described by J. B. Clegg et al. (J. Mol. Biol. 19:91-108, 1966). Briefly, reticulocytes were radio-labeled with ^3H-leucine which was incorporated in equal proportions into actively synthesized globin chains. After incubation in leucine-free media, cells were washed, and globin proteins were separated and purified by column chromatography. Radioactivity incorporated into each peak is compared and the ratios of gamma to gamma plus beta globin calculated. Each animal served as its own control with baseline monitoring assays performed for 4-6 weeks before any drug was administered. Phlebotomy was continued daily, so that peripheral HbF levels in the animals were not considered to be accurate over the short treatment time-frames and were not monitored. Safety monitoring was performed by frequent physical examinations, quantitation of food eaten, activity and frequent chemistry and hematology monitoring. Complete blood counts were assayed before, during and after treatment. Results presented were not adjusted to account for the daily phlebotomy.

[1] = test system: human erythroid cell line K562; assay: Cell viability / growth of K562 by Calcein-AM fluorescence; format: cell-based; conditions: 0.5 mM; over 3 days
Experimental: Such activities might limit their utility for treatment of anemias such as occur in thalassemia, but alternatively would be useful for anticancer effects. To determine cell viability, human erythroid cells were cultured in the presence and absence of these compounds for 4 days and the amount of DNA fragmentation which occurred was measured.
(§1) Cell viability analyses were performed using fluorescent staining to detect living cells. Cells were in log phase of growth in 6-well dishes when used in proliferation assays. For enumeration of living cells, wells were washed once with medium to remove nonadherent or dead cells. Remaining live cells were labeled with Calcein-AM for 20 minutes at 37° C. and washed once. Fluorescence intensity of adherent live cells was read on a CytoFluor 2300 Fluorescence Plate Scanner (Millipore; Bedford, Mass.) at excitation and emission wavelengths of 485 and 530 nm, respectively. The fluorescence intensity of a well was proportional to the number of living cells in the well. Background fluorescence was measured separately for each plate and subtracted from all readings. Each experiment was performed in triplicate or quadruplicate. The standard deviation (SD) of repetitive readings was less than 30% of the mean.
At higher concentrations, still easily achievable in vivo, arginine butyrate (0.5 mM) and dihydrocinnamic acid (greater than 0.5 mM) inhibited growth of this tumor cell line by approximately 50%. Therefore, these compounds are also useful as anti-tumor agents.

[2] = test system: erythroid progenitor cells cultured from human cord blood; assay: Fetal globin expression in human cell cultures (3H-leucine labelled globin chains, densitometry); format: cell-based
Experimental: Compositions were tested for activity in inducing fetal globin expression and protein production in erythroid progenitor cells cultured from human cord blood and analyzed as described by S. P. Perrine et al. (Blood 74: 454-60, 1989). Briefly, mononuclear cells were cultured in IMDM with 30% fetal calf serum and 2 units erythropoietin per ml to induce erythroid differentiation. Colonies were harvested on day 12-13, incubated with radio-labelled (^3H) leucine, and further incubated in leucine-free media, still in the presence of compounds, overnight. Globin composition in the erythroid cells was analyzed by laser densitometry of electrophoretically separated globin chains stained with Coomassie blue, and by autoradiography. Treated cells were incubated for 12-13 days (Table 2, Experiments A and B) or overnight (Table 2, Experiment C) in the presence of the indicated compounds and compared to untreated control cells cultured from the same human subject.

[3] = test system: BFU-e (burst forming unit-erythroid) colonies from peripheral blood mononuclear cells; assay: Stimulation of erythroid proliferation in cell cultures (BFU-e colony growth); format: cell-based, human; conditions: 0.1 mM; 13-14 days; compared with control cultures
Experimental: Peripheral blood was collected from normal volunteers and patients with anemia due to sickle cell disease or thalassemia. Mononuclear cells were isolated by Ficoll-Hypaque (Pharmacia Biotech; Piscataway, N.J.) centrifugation and cultured in Iscove's Modified Dulbecco's Media (IMDM; GIBCO/BRL; Grand Island, N.Y.) supplemented with 10% fetal calf serum, 300 μg/ml glutamine, 3 units/ml IL-3 (Amgen; Thousand Oaks, Calif.), and 2 units/ml erythropoietin (Terry Fox Labs; Vancouver, B.C.). Chemical compounds were obtained from Sigma Chemical (St. Louis, Mo.) or Aldrich Chemical (Milwaukee, Wis.), unless otherwise indicated, and formulated into pharmaceutical compositions by dissolving in aqueous solutions of media or sterile water pH adjusted to about 7.4. Solutions were sterilized by passage at least once through 0.22 micron Nalgene filters and added to cell cultures at final concentrations that are pharmaceutically achievable in vivo (typically between about 0.1 mM to 2.0 mM). Cells were incubated with compounds for between 13-14 days at 37° C. in humidified 5% CO2, and fed and passed, as necessary. Colony growth, proportion of fetal globin-expressing cells and amounts of fetal globin production were assayed. Results are presented in Table 1 as BFU-e stimulation (colony growth).

[4] = test system: erythroid cells (peripheral blood cells); assay: Erythroid cell viability by Calcein-AM fluorescent staining (FIG. 2); format: cell-based; conditions: 0.5 mM
Experimental: as §1, with “Compositions were tested for the ability to directly stimulate erythroid cell growth. Cell growth stimulation is a useful property for an agent to be used to treat anemias and distinguishes such agents from the cytotoxic drugs currently being tested for treatment of hemoglobinopathies. Cell viability” for “Cell viability”, “labeled with 2 μM 2′,7′-bis-(carboxyethyl)-5-(and 6)-carboxy-fluorescein acetoxy-methyl ester (Calcein-AM) (Molecular Probes; Eugene, Oreg.) for 20” for “labeled with Calcein-AM for 20”, “intensity of live cells” for “intensity of adherent live cells”, “the mean. Results are depicted in FIG. 2.” for “the mean.”

Row | Compound | increase in γ globin mRNA of bone marrow cells (bone marrow cells) | fetal reticulocytes after treatment (anemic juvenile baboons; infused 4 days, 300 to 500 mg/kg per day, from 10%) [%] | red blood cell count after treatment (anemic juvenile baboons; intravenous 1,000 mg/kg/day, 4 days, from 2.3) | total hemoglobin after treatment (anemic juvenile baboons; intravenous 1,000 mg/kg/day, 4 days, from 6.6) [grams/dl] | packed red blood cell volume after treatment (anemic juvenile baboons; intravenous 1,000 mg/kg/day, 4 days, from 20.9%) | growth of K562 [1] | Gamma Increase ([2]; Exp. A, 0.1 mM, 12-13 days, above untreated cells) [%] | Gamma Increase ([2]; Exp. C, 0.1 mM, overnight) [%] | Gamma Increase ([2]; Exp. C, 0.2 mM, overnight) [%] | Gamma Increase ([2]; Exp. C, 0.5 mM, overnight) [%] | BFU-e Stimulation (colony growth) [3] [%] | erythroid cell growth and proliferation compared to untreated controls (FIG. 2) [4]
1 | Nc1ncn([C@@H]2O[C@H](CO)[C@@H](O)[C@H]2O)c(=O)n1 [AZA, 5-azacytidine] | five- to seven-fold | – | – | – | – | – | – | – | – | – | – | –
2 | O=C(O)CCc1ccccc1 [DHC, Dihydrocinnamic acid] | – | 17 | 2.73 ×10^6 cells/μl | 7.3 | 22.7 % of the blood | either did not inhibit, or slightly enhanced growth | 12.0 | 24 | 20.0 | 19 | 124 | either had no effect or stimulated erythroid cell growth and proliferation
